Data published in patent US7307063B2, “Melanocortin metallopeptides for treatment of sexual dysfunction” (Palatin Technologies, Inc., priority 2001, dated 2007).
Non-standard residues stand in square brackets, D forms with d. No end group written: not given here. *: point of attachment. Heptanoyl = CCCCCCC(=O)*; Nle = CCCC[C@H](N)C(=O)O

Columns and labels:
MC1-R = molecular target: T1, MC1-R (Mus musculus, UniProt Q01727); test: Competitive binding assay: inhibition of 125I-NDP-α-MSH binding to membranes from B16-F10 mouse melanoma cells; settings: Table 6, mean of triplicate
T1 construct: MC1-R membranes were isolated from B16—F10 mouse melanoma cells; endogenous in cells; host or cells: B16-F10 mouse melanoma cells
Description: (§1) Rhenium-complexed metallopeptides of the formulas given in Table 1 were prepared, with the metallopeptides complexed with rhenium using the rhenium transfer agent ReOCl3(PPh3)2 in the presence of 1,8-Diazabicyclo[5,4,0] undec-7-ene as a base, as disclosed in International Application PCT/US00/16396, filed Jun. 14, 2000, Melanocortin Metallopeptide Constructs, Combinatorial Libraries and Applications, incorporated by reference herein. Affinities of compounds were measured using membranes from HEK-293 cells containing cloned human melanocortin receptor subtypes 3, 4 and 5. MC1-R membranes were isolated from B16—F10 mouse melanoma cells. The assay tube also contained a chosen concentration of the test peptide of this invention, complexed to a rhenium metal ion as indicated, for determining its efficacy in inhibiting the binding of ^125I-NDP-α-MSH to its receptor. Non-specific binding was measured by complete inhibition of binding of ^125I-NDP-α-MSH in the assay with the presence of 1 μM α-MSH. 100% specific binding was defined as the difference in radioactivity (cpm) bound to cell membranes in the absence and presence of 1 μM α-MSH. The cpm obtained in presence of test compounds were normalized with respect to 100% specific binding to determine the percent inhibition of ^125I-NDP-α-MSH binding.
(§2) Peptide sequences set forth in Table 6 were prepared using conventional synthetic means. The resulting sequences were rhenium-complexed to form metallopeptides, with the metallopeptides complexed with rhenium using the rhenium transfer agent ReOCl3(PPh3)2 in the presence of 1,8-Diazabicyclo[5,4,0] undec-7-ene as a base. Percent inhibition was determined as in Example 1 using the Re-complexed metallopeptides, using the same methods as described therein. All measures are means of triplicate determinations.

MC4-R = molecular target: T2, MC4-R (Homo sapiens, UniProt P32245); test: Competitive binding assay: inhibition of 125I-NDP-α-MSH binding to HEK-293 membranes with cloned human receptor subtype 4; settings: Table 6, mean of triplicate
T2 construct: expressed in transfected cells; host or cells: HEK-293
Description: as §1, §2

T2 sequence (P32245 whole entry): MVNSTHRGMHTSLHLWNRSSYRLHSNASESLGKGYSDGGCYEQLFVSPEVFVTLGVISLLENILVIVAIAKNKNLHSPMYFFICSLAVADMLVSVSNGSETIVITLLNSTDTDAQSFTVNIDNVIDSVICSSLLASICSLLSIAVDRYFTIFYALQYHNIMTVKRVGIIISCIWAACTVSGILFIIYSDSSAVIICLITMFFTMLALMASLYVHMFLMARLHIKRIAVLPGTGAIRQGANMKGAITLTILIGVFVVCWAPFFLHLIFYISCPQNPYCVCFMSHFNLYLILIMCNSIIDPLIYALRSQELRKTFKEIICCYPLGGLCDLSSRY
T1 sequence (Q01727 whole entry): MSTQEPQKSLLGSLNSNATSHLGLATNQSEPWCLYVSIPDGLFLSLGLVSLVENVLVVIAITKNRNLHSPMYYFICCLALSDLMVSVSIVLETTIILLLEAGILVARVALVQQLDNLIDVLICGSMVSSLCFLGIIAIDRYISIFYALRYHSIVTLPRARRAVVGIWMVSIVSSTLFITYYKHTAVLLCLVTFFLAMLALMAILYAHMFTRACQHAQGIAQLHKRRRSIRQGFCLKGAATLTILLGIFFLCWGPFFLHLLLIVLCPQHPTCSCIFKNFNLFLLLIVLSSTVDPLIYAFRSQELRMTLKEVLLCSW

| % Inhibition of Binding MC1-R (MC1-R; 1 μM) | % Inhibition of Binding hMC4-R (MC4-R; 1 μM) | % Inhibition of Binding MC1-R (MC1-R; 0.1 μM) | % Inhibition of Binding hMC4-R (MC4-R; 0.1 μM) | Substance |
| --- | --- | --- | --- | --- |
| 66% | 55% |  |  | [dF]R[dW]CK-NH2 |
| 10% | 20% |  |  | Heptanoyl-D-Hphe-D-Phe(2′-Cl)-Lys-Nal 2′-Cys-NH2 |
|  |  | 81% | 57% | 4′-Aminomethyl-Phenylacetyl-Arg-Arg-D-Phe(4′-Cl)-Cys-Trp-NH2 |
|  |  | 9% | 28% | Heptanoyl-Ser(Bzl)-D-Phe(4′-Cl)-Arg-Phe(2′-Cl)-Cys-NH2 |
|  |  | 21% | 90% | Heptanoyl-Ser(Bzl)-D-Phe(4′-Br)-Arg-Trp-Cys-NH2 |
| 87% | 41% |  |  | Ac-[Nle]AH[dF]RW[dC]K-NH2 |
|  |  | 27% | 67% | Heptanoyl-Ser(Bzl)-D-Phe(4′-Cl)-Arg-Phe(3′-Cl)-Cys-NH2 |
| 8% | 0% |  |  | Ac-KA[dF][dC]R-NH2 |
| 48% | 97% |  |  | NH2-(CH2)6-CO-Ser(Bzl)-D-Phe(4′-Cl)-Arg-D-Trp-Cys-NH2 |
| 34% | 73% |  |  | 3′-Br-Phenylacetyl-Lys-Ala-D-Phe(4′-CH3)Cys-Lys-NH2 |
| 69% | 97% |  |  | D-(N-Bzl) Phe(2′-Cl)-Lys-Nal 2′-Cys-NH2 |
| 62% | 91% |  |  | Heptanoyl-Ser(Bzl)-D-Phe(2′-Cl)-Lys-Nal 2′-Cys-NH2 |
| 24% | 0% |  |  | Ac-WA[dF][dC]R-NH2 |
|  | 98% |  |  | 1-Naphthylacetyl-Arg-Arg-D-Phe(4′-Cl)-Cys-Nal 2′-NH2 |
|  |  | 6% | 13% | Heptanoyl-Ser(Bzl)-D-Phe(4′-Cl)-Arg-Tyr-Cys-NH2 |
|  |  | 14% | 46% | Heptanoyl-Ser(Bzl)-D-Phe(4′-Cl)-Arg-Phe(2′-F)-Cys-NH2 |
| 25% | 13% |  |  | Ac-KA[dF][dC]RW-NH2 |
| 16% | 15% |  |  | Heptanoyl-Ser(Bzl)-D-Phe(2′-Cl)-Lys-Phg-Cys-NH2 |
| 65% | 82% |  |  | Ser(Bzl)-D-Phe(4′-Cl)-Arg-D-Trp-Cys-NH2 |
| 4% | 92% |  |  | Heptanoyl-Ser(Bzl)-D-Phe(4′-Cl)-Arg-Thr(Bzl)-Cys-NH2 |
| 35% | 99% |  |  | Ser(Bzl)-D-Phe(4′-Cl)-Arg-Nal 2′-Cys-NH2 |
| 33% | 50% |  |  | Ser(Bzl)-D-Phe(2′-Cl)-Lys-Nal 2′-Cys-NH2 |
| 97% | 52% |  |  | 3′-Cl-Phenylacetyl-Arg-Arg-D-Phe(4′-CH2PO3Et3)-Cys-Trp-NH2 |
|  |  | 45% | 80% | Heptanoyl-Hphe-D-Phe(4′-Cl)-Arg-Trp-Cys-NH2 |
| 57% | 83% |  |  | Heptanoyl-Ser(Bzl)-D-Phe(2′-F)-Lys-Nal 2′-Cys-NH2 |
| 38% | 43% |  |  | Heptanoyl-Ser(Bzl)-D-Phe(4′-Cl)-Arg-Hphe-Cys-NH2 |
| 51% | 69% |  |  | D-Phe(2′-Cl)-Lys-Nal 2′-Cys-NH2 |
| 30% | 72% |  |  | Heptanoyl-Ser(Bzl)-D-Phe(4′-Cl)-Arg-Cys(Bzl)-Cys-NH2 |
| 32% | 24% |  |  | Phe-Arg-Trp-Cys-Trp-NH2 (FRWCW-NH2; not fully specified; printed as Phe-Arg-Trp-Cys-Trp-NH2) |

The next lines start with the substance.

| Substance | % Inhibition of Binding MC1-R (MC1-R; 1 μM) | % Inhibition of Binding hMC4-R (MC4-R; 1 μM) | % Inhibition of Binding MC1-R (MC1-R; 0.1 μM) | % Inhibition of Binding hMC4-R (MC4-R; 0.1 μM) |
| --- | --- | --- | --- | --- |
| 3′-Br-Phenylacetyl-Arg-Arg-D-Phe(4′-CH2PO3Et3)-Cys-Trp-NH2 | 97% | 61% |  |  |
| 3′-Cl Phenyl acetyl-Arg-Ala-D-Phe(4′-CF3)-Cys-Trp-NH2 | 21% | 95% |  |  |
| Ph(CH2)3-CO-D-Phe(2′-Cl)-Lys-Nal 2′-Cys-NH2 | 17% | 33% |  |  |
| Heptanoyl-D-Phe-Arg-Trp-Cys-Lys-NH2 (Heptanoyl-[dF]RWCK-NH2; also: metallopeptide) | 82% | 75% |  |  |
| Ph(CH2)2-CO-D-Phe(2′-Cl)-Lys-Nal 2′-Cys-NH2 | 0% | 26% |  |  |
| 3′-Br Phenyl acetyl-Arg-Ala-D-Phe(3′-Cl)-Cys-Trp-NH2 | 23% | 84% |  |  |
| Ac-[Nle]A[dF][dC]RW-NH2 | 29% | 3% |  |  |
| Ac-Ser(Bzl)-D-Phe(4′-Cl)-Arg-Nal 2′-Cys-NH2 | 49% | 97% |  |  |
| Ac-Nle-Arg-Arg-D-Nal 2′-Cys-Lys-NH2 | 100% | 96% |  |  |
| Heptanoyl-H[dF]RWCK-NH2 | 100% | 98% |  |  |
| Ac-Nle-Arg-Arg-D-Nal 2′-Cys-Trp-Lys-NH2 |  |  | 95% | 96% |
| Heptanoyl-[dP][dF]RWCK-NH2 | 88% | 71% |  |  |
| Heptanoyl-P[dF]RWCK-NH2 | 99% | 97% |  |  |
| Heptanoyl-Ser(Bzl)-D-Phe(4′-Cl)-Gly-Nal 2′-Cys-Lys-NH2 | 46% | 5% |  |  |
| FR[dW]CK-NH2 | 21% | 12% |  |  |
| 4′-Aminomethyl-Phenylacetyl Arg-Arg-Ala-D-Phe(4′-Cl)-Cys-Trp-NH2 | 61% | 84% |  |  |
| Ac-[Nle]A[dF][dC]R-NH2 | 22% | 0% |  |  |

| Substance | % Inhibition of Binding MC1-R (MC1-R; 1 μM) | % Inhibition of Binding hMC4-R (MC4-R; 1 μM) | % Inhibition of Binding MC1-R (MC1-R; 0.1 μM) | % Inhibition of Binding hMC4-R (MC4-R; 0.1 μM) |
| --- | --- | --- | --- | --- |
| 1′-Naphthyl acetyl-Arg-Arg-D-Phe(4′-Cl)-Cys-Trp-NH2 | 97% | 98% |  |  |
| 3′-Br Phenyl acetyl-Arg-Arg-D-Phe(3′-Cl)-Cys-Trp-NH2 | 79% | 96% |  |  |
| D-Phe-Arg-Trp-Cys-Trp-NH2 ([dF]RWCW-NH2; also: metallopeptide) | 90% | 70% |  |  |
| Ac-His-HyP(Bzl)-D-Phe(2′-Cl)-Arg-Nal 2′-Cys-NH2 | 84% | 99% |  |  |
| [dF]RW[dC]K-NH2 | 23% | 42% |  |  |
| HyP(Bzl)-D-Phe(2′-Cl)-Nal 2′-Cys-NH2 | 57% | 85% |  |  |
| Ph(CH2)-CO-D-Phe(2′-Cl)-Lys-Nal 2′-Cys-NH2 | 11% | 22% |  |  |
| [dF]RW[dC]W-NH2 | 53% | 45% |  |  |
| D-Phe-Arg-Trp-Cys-Lys-NH2 ([dF]RWCK-NH2; also: metallopeptide) |  | 81% |  |  |
| Ser(Bzl)-D-Phe(4′-Cl)-Arg-Nal 2′-Cys-Lys-NH2 |  |  | 33% | 95% |
| Heptanoyl-Ser(Bzl)-D-Phe(4′-Cl)-Arg-Asp(OcHx)-Cys-NH2 |  |  | 15% | 25% |
| Heptanoyl-Ser(Bzl)-D-Phe(2′-Cl)-Lys-Phe-Cys-NH2 | 20% | 19% |  |  |
| 3′-Br Phenyl acetyl-Arg-Ala-D-Phe(4′-CF3)-Cys-Trp-NH2 | 22% | 95% |  |  |
| Heptanoyl-Ser(Bzl)-D-Phe(4′-Cl)-Arg-Phe-Cys-NH2 |  |  | 11% | 32% |
| Heptanoyl-Ser(Bzl)-D-Phe(4′-Cl)-Arg-Phe(3′-F)-Cys-NH2 |  |  | 19% | 43% |
| Heptanoyl-Ser(Bzl)-D-Phe(4′-Cl)-Arg-Nal 2′-Cys-NH2 |  |  | 16% | 94% |
| Heptanoyl-Ser(Bzl)-D-Phe(2′-Cl)-Lys-Hphe-Cys-NH2 | 12% | 6% |  |  |
